Measurements taken from patent US5079260A, “Method for treating inflammation and compounds and compositions suitable for use therein” (Nova Pharmaceutical Corporation, priority 1990, dated 1992).

Assays:
[1] = test system: Ear Edema Caused by Tetradecanoylphorbolacetate; experiment: Inhibition of Ear Edema Caused by Tetradecanoylphorbolacetate (I), Table 1; format: in vivo, CF-1 Mice; settings: i.p., 100 mg/kg, 30 min before irritant; ear thickness at 3 h
Text: Such inflammatory agents typically include tetradecanoylphorbolacetate, arachidonic acid, xylene, capsaicin, oxazolone, carrageenan and the like. The reverse passive Arthus test offers another measure of the compound's utility in preventing an inflammatory response (Chang et al, Eur. J. Pharm. 69:155-164 (1981)). Test compounds are typically administered intraperitoneally or topically. For intraperitoneal administration, the test compound can be given in dimethyl sulfoxide or in 0.5% methylcellulose 30 minutes prior to administration of the irritant. For topical administration, the test compound can be dissolved in, for example, acetone, ethanol or dimethyl sulfoxide and applied about 15 minutes prior to application of the irritant. Results can be expressed as the percent decrease in swelling in the compound-treated animals as compared to control animals that receive only the irritant.
Inhibition of Ear Edema Caused by Tetradecanoylphorbolacetate (I)
CF-1 Mice, 25-30 g body weight, six animals per group, were used. Test compounds (compounds of Formula I where X is oxygen, R3, R4, A and B are hydrogen and Q is as indicated in Table 1) were administered intraperitoneally (100 mg/kg) or topically as follows. For intraperitoneal administration, the test compound was dissolved in dimethyl sulfoxide or 0.5% methylcellulose and 100 μl was injected 30 minutes prior to irritant (100 mg/kg, i.p.). For topical administration, the test compound was dissolved in either acetone, ethanol or dimethyl sulfoxide and 5 μl (100 μg) applied to the upper surface (1 cm^2) of the ear and an additional 5 μl (100 μg) applied to the lower surface (1 cm^2) of the ear fifteen minutes prior to application of the irritant. A solution of the irritant, tetradecanoylphorbolacetate, 200 μg/ml, was added to the surface of the ear, 5 μl added to the upper surface and 5 μl to the lower surface. After three hours, the thickness of the ear was measured to 0.01 mm by a micrometer with loose drag positioned at the lateral-most edge of the mid-point of the pinna. Data were calculated as the inhibition by the test compound of increased ear thickness compared to control animals receiving only the irritant.

[2] = test system: Ear Edema Caused By Tetradecanoylphorbol Acetate; experiment: Inhibition of Ear Edema Caused by Tetradecanoylphorbol Acetate (II), Table 7; format: in vivo, CF-1 Mice; settings: i.p., 3 h
Method: Inhibition of Ear Edema Caused by Tetradecanoylphorbol Acetate (II)
CF-1 Mice, 25-30 g body weight, six animals per group were used. Test compounds were administered intraperitoneally or topically as follows. For intraperitoneal administration, the test compound was dissolved in dimethyl sulfoxide or 0.5% methylcellulose and 100 microliters was injected 30 minutes prior to irritant (100 mg/kg, i.p.). […] A solution of the irritant, tetradecanoylphorbol acetate, 200 μg/mL, was added to the surface of the ear, 5 μL to the upper surface and 5 μL to the lower surface. After three hours, the thickness of the ear was measured to 0.01 mm by a micrometer with loose drag, positioned at the lateral-most edge of the mid-point of the pinna. Data were calculated as the inhibition of increased ear thickness compared to control animals receiving only the irritant.

[3] = test system: Ear Edema Caused by Arachidonic Acid; experiment: Inhibition of Ear Edema Caused by Arachidonic Acid (II), Table 8; format: in vivo, CF-1 mice; settings: i.p., sixty minutes
Method: Inhibition of Ear Edema Caused by Arachidonic Acid (II)
CF-1 mice, 25-30 g body weight, six animals per group, were used. The requisite amount of the test compound was dissolved is dimethyl sulfoxide or 0.5% methylcellulose and 100 μL of the solution was injected intraperitoneally 30 minutes prior to the administration of 100 mg/kg of arachidponic acid. A solution of this irritant, b 100 mg/mL in ethanol, was applied to the surface of the ear, 5 μL to the upper surface and 5 μL to the lower surface. After sixty minutes, the thickness of the ear was measured to 0.01 mm by a micrometer with the loose drag positioned at the lateral-most edge of the mid-point of the pinna. Data were calculated as the percent inhibityion by the test compound of increased ear thickness compared to control animals recieveing only the irritant.

[4] = test system: Ear Edema Caused by Xylene; experiment: Inhibition of Ear Edema Caused by Xylene (II), Table 9; format: in vivo, CF-1 mice; settings: i.p., 2 h
Method: Inhibition of Ear Edema Caused by Xylene (II)
CF-1 mice, 25-30 g body weight, six animals per group, were used. The requisite amount of the test compound was dissolved is dimethyl sulfoxide or 0.5% methylcellulose and 100 μL of the solution was injected intraperitoneally 30 minutes prior to the administration the irritant. The irritant xylene was applied to the surface of the ear, 20 μL to the upper surface and 20 μL to the lower surface, After two hours, the thickness of the ear was measured to 0.01 mm by a micrometer with the loose drag positioned at the lateral-most edge of the mid-point of the pinna. Data were calculated as the percent inhibition by the test compound of increased ear thickness compared to control animals receiving only the irritant.

[5] = test system: Ear Edema Caused by Oxazolone; experiment: Inhibition of Ear Edema Caused by Oxazolone (II), Table 10; format: in vivo, CF-1 mice; settings: i.p., 24 h
Method: Inhibition of Ear Edema Caused by Oxazolone (II)
CF-1 mice, 25-30 g body weight, five to six animals per group were used. The mice were sensitized to the irritant two weeks prior to the test by dribbling 100 μL of a 3% solution of oxazolone in acetone onto the abdominal skin of the animal. Test compounds were administered intraperitoneally as follows. […] The irritant, 3% oxazolone in acetone, was added to the surface of the ear, 5 μL added to the upper surface and 5 μL added to the lower surface. After twenty four hours, the thickness of the ear was measured to 0.01 mm by a micrometer with loose drag, positioned at the lateral-most edge of the mid-point of the pinna. Data were calculated as the inhibition of increased ear thickness compared to control animals' receiving only the irritant.

[6] = test system: Reverse Passive Artus Reaction; experiment: Reverse Passive Artus Reaction (II), Table 11; format: in vivo, Male CD rats; settings: inhibition of blueing; i.p., 100 mg/kg
Method: Reverse Passive Artus Reaction (II) Male CD rats weighing between 200 and 250 g were used. […] The animals were anesthetized inhalationally with isoflurane and then injected through the penile vein with 1 mL of a solution of 2.5 mg of Evan's blue dye and 5.0 mg of human serum albumin in 1 mL of saline. This treatment was followed immediately by intracutaneous injections of 0.03 mL of anti-human albumin diluted to contain 3.65 mg of antibody at 3 sites along the midline back. Anesthesia was terminated and after three hours, the animals were sacrificed. The skin was removed and the blue stained areas cut out. The skin patches were soaked overnight in stoppered tubes containing 1 mL of 1 N potassium hydroxide at 37° C. Then 9 mL of a mixture of five parts of a 0.6 N phosphoric acid and thirteen parts of acetone were added to the tubes. The tube contents were agitated and centrifuged, and the absorbance measured at 620 nm. The data were calculated as inhibition of blueing by test compound compared to control animals receiving only antigen and antibody.

## NCCCC[C@H](N)C(=O)O [L-Lysine]
[1]
  % Inhibition Intraperitoneal: 14%

## CCCC[C@H](NC(=O)OCC1c2ccccc2-c2ccccc21)C(=O)O [NPC 15667, N-[9H-(Fluorenyl-9-ylmethoxy)carbonyl]-L-norleucine]
[2]; 10 mg/kg
  % Inhibition Intraperitoneal: -80%
[2]; 30 mg/kg
  % Inhibition Intraperitoneal: 72%
[3]; 10 mg/kg
  % Inhibition Intraperitoneal: 7%
[3]; 30 mg/kg
  % Inhibition Intraperitoneal: 57%
[3]; 100 mg/kg
  % Inhibition Intraperitoneal: 65%
[4]; 10 mg/kg
  % Inhibition: 22%
[4]; 30 mg/kg
  % Inhibition: 57%
[4]; 100 mg/kg
  % Inhibition: 80%
[5]; 10 mg/kg
  % Inhibition Intraperitoneal: 13%
[5]; 30 mg/kg
  % Inhibition Intraperitoneal: 15%
[5]; 100 mg/kg
  % Inhibition Intraperitoneal: 71%
[6]
  % Inhibition Intraperitoneal: 63%

## Cc1ccc2c(c1)C(COC(=O)N[C@@H](CC(C)C)C(=O)O)c1cc(C)ccc1-2 [NPC 15669, N-{[9H-(2,7-Dimethylfluoren-9-yl)methoxy]-carbonyl}-L-leucine]
[2]; 10 mg/kg
  % Inhibition Intraperitoneal: 43%
[2]; 30 mg/kg
  % Inhibition Intraperitoneal: 27%
[2]; 100 mg/kg
  % Inhibition Intraperitoneal: 133%
[3]; 10 mg/kg
  % Inhibition Intraperitoneal: 12%
[3]; 30 mg/kg
  % Inhibition Intraperitoneal: 22%
[3]; 100 mg/kg
  % Inhibition Intraperitoneal: 60%
[4]; 10 mg/kg
  % Inhibition: 12%
[4]; 30 mg/kg
  % Inhibition: 22%
[4]; 100 mg/kg
  % Inhibition: 60%
[5]; 10 mg/kg
  % Inhibition Intraperitoneal: -40%
[5]; 30 mg/kg
  % Inhibition Intraperitoneal: 84%
[5]; 100 mg/kg
  % Inhibition Intraperitoneal: 84%
[6]
  % Inhibition Intraperitoneal: 60%

## Cc1ccc2c(c1)C(CCC(=O)N[C@@H](CC(C)C)C(=O)O)c1ccccc1-2 (stereo partly drawn) [NPC 15671, N-{9H-[3-(2-Methylfluoren-9-yl)propionyl]}-L-leucine]
[2]; 10 mg/kg
  % Inhibition Intraperitoneal: 41%
[2]; 30 mg/kg
  % Inhibition Intraperitoneal: 31%
[2]; 100 mg/kg
  % Inhibition Intraperitoneal: 66%
[3]; 10 mg/kg
  % Inhibition Intraperitoneal: 40%
[3]; 30 mg/kg
  % Inhibition Intraperitoneal: 19%
[3]; 100 mg/kg
  % Inhibition Intraperitoneal: 56%
[4]; 10 mg/kg
  % Inhibition: 6%
[4]; 30 mg/kg
  % Inhibition: 10%
[4]; 100 mg/kg
  % Inhibition: 18%
[5]; 10 mg/kg
  % Inhibition Intraperitoneal: 5%
[5]; 30 mg/kg
  % Inhibition Intraperitoneal: 20%
[5]; 100 mg/kg
  % Inhibition Intraperitoneal: 69%
[6]
  % Inhibition Intraperitoneal: 13%

## COCc1cccc2c1C(COC(=O)N[C@@H](CC(C)C)C(=O)O)c1ccccc1-2 (stereo partly drawn) [NPC 15673, N-{[9H-(1-Methoxymethylfluoren-9-yl)methoxy]carbonyl}-L-leucine]
[2]; 10 mg/kg
  % Inhibition Intraperitoneal: 0%
[2]; 30 mg/kg
  % Inhibition Intraperitoneal: 33%
[2]; 100 mg/kg
  % Inhibition Intraperitoneal: 60%
[3]; 10 mg/kg
  % Inhibition Intraperitoneal: 24%
[3]; 30 mg/kg
  % Inhibition Intraperitoneal: 27%
[3]; 100 mg/kg
  % Inhibition Intraperitoneal: 58%
[4]; 10 mg/kg
  % Inhibition: 20%
[4]; 30 mg/kg
  % Inhibition: 26%
[4]; 100 mg/kg
  % Inhibition: 29%
[5]; 10 mg/kg
  % Inhibition Intraperitoneal: 0%
[5]; 30 mg/kg
  % Inhibition Intraperitoneal: 12%
[5]; 100 mg/kg
  % Inhibition Intraperitoneal: 18%
[6]
  % Inhibition Intraperitoneal: 46%

## CC(C)(C)C[C@H](NC(=O)OCC1c2ccccc2-c2ccccc21)C(=O)O [NPC 15676, N-[(9H-Fluoren-9-ylmethoxy)carbonyl]-L--neopentylglycine quarter hydrate]
[2]; 10 mg/kg
  % Inhibition Intraperitoneal: 0%
[2]; 30 mg/kg
  % Inhibition Intraperitoneal: 20%
[2]; 100 mg/kg
  % Inhibition Intraperitoneal: 16%
[3]; 10 mg/kg
  % Inhibition Intraperitoneal: 20%
[3]; 30 mg/kg
  % Inhibition Intraperitoneal: 44%
[3]; 100 mg/kg
  % Inhibition Intraperitoneal: 79%
[4]; 10 mg/kg
  % Inhibition: 26%
[4]; 30 mg/kg
  % Inhibition: 12%
[4]; 100 mg/kg
  % Inhibition: 44%
[5]; 10 mg/kg
  % Inhibition Intraperitoneal: 0%
[5]; 30 mg/kg
  % Inhibition Intraperitoneal: 4%
[5]; 100 mg/kg
  % Inhibition Intraperitoneal: 50%
[6]
  % Inhibition Intraperitoneal: 82%

## CC(C)(C)[C@H](NC(=O)CCC1c2ccccc2-c2ccccc21)C(=O)O [NPC 15685, N-[3-(9H-Fluoren-9-yl)propionyl]-L-tert-leucine, quarter hydrate]
[2]; 10 mg/kg
  % Inhibition Intraperitoneal: 0%
[2]; 30 mg/kg
  % Inhibition Intraperitoneal: 16%
[2]; 100 mg/kg
  % Inhibition Intraperitoneal: 67%
[3]; 10 mg/kg
  % Inhibition Intraperitoneal: 44%
[3]; 30 mg/kg
  % Inhibition Intraperitoneal: 61%
[3]; 100 mg/kg
  % Inhibition Intraperitoneal: 69%
[4]; 10 mg/kg
  % Inhibition: 5%
[4]; 30 mg/kg
  % Inhibition: 23%
[4]; 100 mg/kg
  % Inhibition: 18%
[5]; 10 mg/kg
  % Inhibition Intraperitoneal: 0%
[5]; 30 mg/kg
  % Inhibition Intraperitoneal: 30%
[5]; 100 mg/kg
  % Inhibition Intraperitoneal: 30%
[6]
  % Inhibition Intraperitoneal: 42%

## Cc1cccc2c1C(CCC(=O)N[C@H](C(=O)O)C(C)(C)C)c1ccccc1-2 (stereo partly drawn) [NPC 15885, N-{9H-[3-(1-Methylfluoren-9-yl)propionyl]}-L-tert-leucine, quarter hydrate]
[2]; 10 mg/kg
  % Inhibition Intraperitoneal: 70%
[2]; 30 mg/kg
  % Inhibition Intraperitoneal: 77%
[2]; 100 mg/kg
  % Inhibition Intraperitoneal: 80%
[3]; 10 mg/kg
  % Inhibition Intraperitoneal: 52%
[3]; 30 mg/kg
  % Inhibition Intraperitoneal: 71%
[3]; 100 mg/kg
  % Inhibition Intraperitoneal: 79%
[4]; 10 mg/kg
  % Inhibition: 39%
[4]; 30 mg/kg
  % Inhibition: 49%
[4]; 100 mg/kg
  % Inhibition: 48%
[5]; 10 mg/kg
  % Inhibition Intraperitoneal: 1%
[5]; 30 mg/kg
  % Inhibition Intraperitoneal: 8%
[5]; 100 mg/kg
  % Inhibition Intraperitoneal: 36%
[6]
  % Inhibition Intraperitoneal: 49%

## CC(C)(SCc1ccccc1)[C@@H](NC(=O)OCC1c2ccccc2-c2ccccc21)C(=O)O [NPC 15953, S-Benzyl-β,β-dimethyl-N-[9H-(fluoren-9-ylmethoxy)carbonyl]-D-cystein]
[2]; 10 mg/kg
  % Inhibition Intraperitoneal: 64%
[2]; 30 mg/kg
  % Inhibition Intraperitoneal: 87%
[2]; 100 mg/kg
  % Inhibition Intraperitoneal: 95%
[3]; 10 mg/kg
  % Inhibition Intraperitoneal: 46%
[3]; 30 mg/kg
  % Inhibition Intraperitoneal: 66%
[3]; 100 mg/kg
  % Inhibition Intraperitoneal: 60%
[4]; 10 mg/kg
  % Inhibition: 46%
[4]; 30 mg/kg
  % Inhibition: 66%
[4]; 100 mg/kg
  % Inhibition: 60%
[5]; 10 mg/kg
  % Inhibition Intraperitoneal: 0%
[5]; 30 mg/kg
  % Inhibition Intraperitoneal: 28%
[5]; 100 mg/kg
  % Inhibition Intraperitoneal: 79%
[6]
  % Inhibition Intraperitoneal: 68%
